From article PMC10652111, “Zymograph profiling reveals a divergent evolution of sirtuin that may originate from class III enzymes” (The Journal of Biological Chemistry, 2023)

Target: T1, STM1221 (Salmonella enterica, UniProt P0A2F2)
T1 construct: gene cobB; expressed from pET28b in E. coli BL21, nickel-purified
T1 sequence (P0A2F2 1-273): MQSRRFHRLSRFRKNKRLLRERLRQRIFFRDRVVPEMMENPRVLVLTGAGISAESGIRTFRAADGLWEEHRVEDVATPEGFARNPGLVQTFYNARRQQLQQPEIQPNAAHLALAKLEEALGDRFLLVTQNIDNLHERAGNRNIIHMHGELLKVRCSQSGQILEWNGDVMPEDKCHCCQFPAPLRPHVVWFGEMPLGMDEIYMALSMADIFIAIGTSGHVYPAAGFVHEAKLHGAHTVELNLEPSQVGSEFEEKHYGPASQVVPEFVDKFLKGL
Experiment: HPLC deacylation assay
Assay type: biochemical
Details: 1 mM NAD+, 1 mM acylated H3K27 13-mer peptide as co-substrate, 5 uM enzyme, 6 mM MgCl2, pH 8.0, 37 °C

Structure (SMILES): NC(=O)c1ccc[n+]([C@@H]2O[C@H](COP(=O)(O)OP(=O)(O)OC[C@H]3O[C@@H](n4cnc5c(N)ncnc54)[C@H](O)[C@@H]3O)[C@@H](O)[C@H]2O)c1 [NAD^+]
- HPLC deacylation assay: The reactions without NAD^+ were used as the negative controls
